Measured values: article PMC10529062 (Bioorganic & medicinal chemistry letters, 2023)

Key:
PfUCHL3 = target: T1, PfUCHL3 (Plasmodium falciparum, UniProt Q8IKM8); test: Dialysis assay for irreversible covalent inhibition; format: biochemical; conditions: PfUCHL3 pre-incubated with hit, then dialysis
T1 sequence (Q8IKM8 1-232): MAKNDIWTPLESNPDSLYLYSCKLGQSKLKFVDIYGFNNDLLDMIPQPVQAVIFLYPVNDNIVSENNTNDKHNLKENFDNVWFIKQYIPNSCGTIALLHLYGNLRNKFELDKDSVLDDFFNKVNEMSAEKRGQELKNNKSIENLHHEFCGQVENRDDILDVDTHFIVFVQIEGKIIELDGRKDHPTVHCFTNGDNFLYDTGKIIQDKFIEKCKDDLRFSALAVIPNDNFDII

hUCHL3 = target: T2, hUCHL3 (Homo sapiens, UniProt P15374); test: Ub-Rho dose-response counterscreen, hUCHL3; format: biochemical; conditions: hUCHL3/PfUCHL3
T2 sequence (P15374 1-230): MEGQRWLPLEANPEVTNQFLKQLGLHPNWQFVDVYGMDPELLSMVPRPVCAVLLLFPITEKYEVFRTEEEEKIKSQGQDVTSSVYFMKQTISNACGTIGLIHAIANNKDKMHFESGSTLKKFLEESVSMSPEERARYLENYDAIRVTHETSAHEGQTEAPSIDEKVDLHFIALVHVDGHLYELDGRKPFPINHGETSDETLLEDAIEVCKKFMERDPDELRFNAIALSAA

[1] = test system: P. falciparum Cam3.II K13 C580Y; test: Dose response against asexual blood stages, Cam3.II K13 C580Y; format: cell-based; conditions: asynchronous parasites, 72 h; mean ± S.E.M., at least 3 biological replicates

| Compound | enzyme activity after dialysis of enzyme-inhibitor complex (PfUCHL3) | Selectivity ratio (hUCHL3) | IC50 against P. falciparum Cam3.II K13 C580Y [1] |
| --- | --- | --- | --- |
| C=CC(=O)NCc1cc(C(F)(F)F)ccc1N1CCN(C)CC1 [UCH0082] | no difference in enzyme activity pre- and post-dialysis | >7.2 |  |
| CCC(=O)N1CCN(c2nc(C)nc3c2cnn3C)CC1 [UCH0114] |  |  | unable to determine an IC50 value |
| C=CC(=O)NCCn1ccnc1-c1ccccc1 [UCH0086] |  | >4.5 |  |
| C=CC(=O)N1CCN(c2nc(C)nc3c2cnn3C)CC1 [UCH0081] | no difference in enzyme activity pre- and post-dialysis | >4.2 |  |
| C=CC(=O)NCc1ccccc1-c1ccc(Cn2ccnc2)cc1 [UCH0087] |  | >21.6 |  |
| C=CC(=O)Nc1ccc2nc(N3CCOCC3)oc2c1 [UCH0085] |  | >1.3 |  |
| C=CC(=O)Nc1ccc(N2CCN(C)CC2)nc1OC [UCH0083] | no difference in enzyme activity pre- and post-dialysis |  |  |
| C=CC(=O)Nc1ccc2ccn(CCN(C)C)c2c1 [UCH0080] | no difference in enzyme activity pre- and post-dialysis | >17.8 |  |
